The source of these data is patent publication US5945508A, “Substance P treatment for immunostimulation” (priority 1997, dated 1999).

In this experiment the test system is Spleen T Cell. As to the kind of experiment: Mitogenesis of spleen T cells, LP-BM5 mouse AIDS model. Format: in vivo, C57BL6 mice. As to the method: C57BL6 mice, average weight of 25-30 grams, were infected with the LP-BM5 murine leukemia retrovirus to simulate the human AIDS virus. […] The mice were divided into two groups; LP-BM5 virus only and LP-BM5 virus+substance P aerosol therapy at 1 μM concentration. The mice were killed at 4 and 8 weeks postinoculation.
The proliferation of splenic B and T cells induced by mitogens was determined by incorporation of radioactive thymidine. Splenocytes in 0.1 ml of cell culture medium (1×10 ^7 cells/ml) were cultured in 96-well flat-bottom cultured plates with ConA and lipopolysaccharide, 5 micrograms/ml). […] After 4 hours for radioactive thymidine uptake, the cells were harvested by a cell sample harvester. Radioactivity was determined by a liquid scintillation counter (Tri-Carb, 2200CA). The T and B cell mitogenesis values were recorded as counts per min in 1×10^7 cells/ml.

Regarding Substance P [SP], the “Spleen T Cell Mitogenesis” value is, setting by setting: (4 weeks after LP-BM5 infection, SP aerosol 1 μM 3 days/week, 25 Hours in Culture) 2963 (56) counts per min; (4 weeks after LP-BM5 infection, SP aerosol 1 μM 3 days/week, 48 Hours in Culture) 2769 (23) counts per min; (4 weeks after LP-BM5 infection, SP aerosol 1 μM 3 days/week, 72 Hours in Culture) 4362 (69) counts per min; (8 weeks post-infection with LP-BM5, SP aerosol 1 μM, 72 hours in culture) 3127 (77) counts per min.
